Several values for one entry are separate records, joined by “and”; a condition that tells them apart may be missing. Equal entries are not always repeated. Where two headings read alike, the source gives them in different places. Marks after values point to notes of the source that are not given here.
Tests used:
[1] = cited from earlier work
[2] = Brain and plasma concentrations in mice after intraperitoneal administration (LC-MS-MS), non-compartmental analysis; format: in vivo; conditions: for [drug],plasma (free base equivalent): listed as GNTI.2HCl.H2O; for [drug],plasma (free base equivalent) / concentration at 0.5 h / concentration at 1 h / concentration at 2 h / concentration at 4 h / concentration at 24 h / AUC(0-inf) / CL/F / Vd/F: 10 mg/kg
Procedure: Doses are reported by weight of the specified salt. […] Body mass was measured to ±0.1 g.
Mice were sacrificed by cervical dislocation, then decapitated for collection of brain and blood samples. Trunk blood was collected in 1.5 mL polypropylene micro-centrifuge tubes, shaken with a few crystals of EDTA and cooled in ice-water. Samples were centrifuged at 14,000 rpm (revolutions per minute) for 15 minutes at 3 °C, then stored in glass sample vials at −20 °C until analysis. Brains were removed and immersed for 30 seconds in 2-methylbutane over dry ice, then stored in polypropylene tubes at −20 °C until sample preparation. Sample tubes were thawed in ice-water, distilled water was added (2:1 by weight) and the brain homogenized with a probe sonicator for 3 minutes over ice-water (Fisher Sonic Dismembrator 300 at 35% power). The probe was rinsed with ethanol and distilled water between samples. Brain homogenate was stored in glass sample vials at −20 °C until analysis by LC-MS-MS.
(§1) Drug concentrations (ng mL^-1) refer to the free base, and were measured by liquid chromatography-tandem mass spectrometry (LC-MS-MS) as described previously. Briefly, samples were shaken with 3 volumes of methanol and centrifuged at 3000 g. Aliquots of the supernatants were diluted with 5 volumes of water containing an appropriate internal standard. Extracts from in vitro and in vivo experiments were analyzed by multiple reaction monitoring on an API3000 or API4000 LC-MS-MS system with electrospray ion source, controlled and analyzed using the Analyst software package (Applied Biosystems, Foster City, CA). Chromatography was conducted on a Sprite Armor C18 analytical column (20 × 2.1 mm, 10 μm particle size, Analytical Sales and Products, Pompton Plains, NJ) with a 0.5 μm PEEK guard filter. Compounds were eluted with a gradient from 2% to 95% acetonitrile in water, both containing 0.1% formic acid. Compounds were detected in positive ion mode, tuned to the mass transition with the largest intensity. Analyte concentrations were determined by comparison of analyte:internal standard peak area ratios to those of standards prepared in the appropriate matrices.
For calculation of mean concentrations, the earliest values below the MRC were substituted by MRC ÷ 2, as recommended elswhere. Pharmacokinetic parameters were calculated from mean concentrations using PKSolver, employing non-compartmental analysis for extravascular administration. Curves in figures were fitted using Origin 8.5 (OriginLab, Northampton, MA) using 2-compartment models. Confidence intervals and two-tailed p values (unpaired t test) were calculated using Graphpad Quickcalcs. One outlier was identified using Grubbs' test (p < 0.01) and excluded from the analysis; see Additional file 1.

[3] = parameters: method as in PMID 17049114; conditions: mice, i.p.; cited from earlier work
[4] = Octanol-buffer distribution (log D7.4); format: physicochemical
Procedure: Phosphate-buffered saline (PBS, pH 7.4) and 1-octanol were mutually saturated by vigorous stirring at room temperature for 18 h, and then separated. Drug solutions of 0.1 mg mL^-1 in PBS were prepared, and 500 μL aliquots were added to 1.5 mL micro-centrifuge tubes with an equal volume of 1-octanol. Three samples were vortex-mixed for 1, 10 and 30 minutes respectively, then centrifuged at room temperature (12,000 rpm for 15 minutes). Aliquots of the upper octanol layer were removed by pipette. A disposable syringe was inserted while bubbling air through the upper layer, an aliquot of the lower PBS layer withdrawn, and the needle removed before transferring. Samples were stored in glass sample vials at −20 °C until analysis by LC-MS-MS.
as §1

[5] = 0.5 h, 10 mg/kg i.p., individual mice
[6] = 1 h, 10 mg/kg i.p., individual mice
[7] = 2 h, 10 mg/kg i.p., individual mice
[8] = male, Swiss-Webster, mouse, ip, plasma NCA, 10 mg/kg i.p.

SMILES: N=C(N)Nc1ccc2[nH]c3c(c2c1)C[C@@]1(O)[C@H]2Cc4ccc(O)c5c4[C@@]1(CCN2CC1CC1)[C@H]3O5 [GNTI, 5’-guanidinonaltrindole]
- Water solubility ([1]; 25 °C, ref Tocris product information sheet): >100^a mmol L^-1
- Water solubility ([1]; ref Tocris product information sheet (Table 1)): at least 100 mM
- Time of maximal mean plasma level ([2]; 10 mg kg^-1 i.p., mice): 30 min
- [drug],brain (free base equivalent) [2, 5]: <120 ng/g
- [drug],plasma (free base equivalent) [2, 5]: 3610 ng/mL and 1790 ng/mL and 3840 ng/mL
- [drug],brain (free base equivalent) [2, 6]: <120 ng/g
- [drug],plasma (free base equivalent) [2, 6]: 1750 ng/mL and 2420 ng/mL and 4880 ng/mL
- [drug],brain (free base equivalent) [2, 7]: <120 ng/g
- [drug],plasma (free base equivalent) [2, 7]: 1120 ng/mL and 3700 ng/mL and 2910 ng/mL
- [drug],plasma (free base equivalent) ([2]; 4 h, 10 mg/kg i.p., individual mice): 114 ng/mL and 206 ng/mL
- [drug],plasma (free base equivalent) ([2]; 24 h, 10 mg/kg i.p., individual mice): <13 ng/mL
- Brain levels (below MRC) ([2]; all timepoints, 10 mg kg^-1 i.p.): < 120 ng/mL
- C max,brain ([2]; brain, 10 mg kg^-1 i.p., mice): < 120 ng/mL
- Decline of mean plasma concentration from peak ([2]; by 24 hours, 10 mg kg^-1 i.p.): at least 98%
- Kp uu ([2]; male, Swiss-Webster, mouse, brain and plasma (unbound), intraperitoneal, postmortem samples, 13–18 minutes after 39 mg kg^-1 GNTI·2CF3CO2H, read-out: Cmax,brain,u/Cmax,p,u): < 0.0007
- Kp ([2]; male, Swiss-Webster, mouse, brain and plasma, intraperitoneal, postmortem samples, 13–18 minutes after 39 mg kg^-1 GNTI·2CF3CO2H, read-out: Cmax,brain/Cmax,p): 0.0085
- concentration at 0.5 h ([2]; male, Swiss-Webster, mouse, brain, ip, 0.5 h, 10 mg/kg i.p., individual mice, read-out: [drug],brain (free base equivalent)): < 120 ng/g
- concentration at 0.5 h ([2]; male, Swiss-Webster, mouse, brain, ip, 0.5 h, 10 mg/kg i.p., read-out: mean (brain)): < 120 ng/g
- concentration at 1 h ([2]; male, Swiss-Webster, mouse, brain, ip, 1 h, 10 mg/kg i.p., individual mice, read-out: [drug],brain (free base equivalent)): < 120 ng/g
- concentration at 2 h ([2]; male, Swiss-Webster, mouse, brain, ip, 2 h, 10 mg/kg i.p., individual mice, read-out: [drug],brain (free base equivalent)): < 120 ng/g
- Tmax ([2]; male, Swiss-Webster, mouse, in vivo, ip, ·2HCl salts, 10 mg kg^-1 i.p., mice): 0.5 h
- AUC(0-t) [2, 8]: 9450 ng·h/mL
- Tmax [2, 8]: 0.5 h
- k el ([2]; male, Swiss-Webster, mouse, ip, plasma NCA, 10 mg/kg i.p., read-out: Lambda_z (converted)): 6.68e-05 s⁻¹
- MRT inf ([2]; male, Swiss-Webster, mouse, ip, plasma NCA, 10 mg/kg i.p., read-out: MRT 0-inf_obs): 2.18 h
- half-life ([2]; male, Swiss-Webster, mouse, ip, plasma NCA, 10 mg/kg i.p., read-out: t1/2 (converted)): 2.88 h
- Cmax ([2]; male, Swiss-Webster, mouse, ip, plasma, 10 mg kg^-1 i.p., mice, read-out: C max,p): 3080 ng/mL
- concentration at 0.5 h ([2]; male, Swiss-Webster, mouse, plasma, intraperitoneal, 0.5 h, read-out: Conc (plasma, NCA input)): 3080 ng/mL
- concentration at 1 h ([2]; male, Swiss-Webster, mouse, plasma, intraperitoneal, 1 h, read-out: Conc (plasma, NCA input)): 3020 ng/mL
- concentration at 2 h ([2]; male, Swiss-Webster, mouse, plasma, intraperitoneal, 2 h, read-out: Conc (plasma, NCA input)): 2580 ng/mL
- concentration at 4 h ([2]; male, Swiss-Webster, mouse, plasma, intraperitoneal, 4 h, read-out: Conc (plasma, NCA input)): 154 ng/mL
- concentration at 24 h ([2]; male, Swiss-Webster, mouse, plasma, intraperitoneal, 24 h, read-out: Conc (plasma, NCA input)): 8.8 ng/mL
- concentration at 0.5 h ([2]; male, Swiss-Webster, mouse, plasma, ip, 0.5 h, 10 mg/kg i.p., read-out: mean (plasma)): 3080 ng/mL
- concentration at 1 h ([2]; male, Swiss-Webster, mouse, plasma, ip, 1 h, 10 mg/kg i.p., read-out: mean (plasma)): 3020 ng/mL
- concentration at 2 h ([2]; male, Swiss-Webster, mouse, plasma, ip, 2 h, 10 mg/kg i.p., read-out: mean (plasma)): 2580 ng/mL
- concentration at 4 h ([2]; male, Swiss-Webster, mouse, plasma, ip, 4 h, 10 mg/kg i.p., individual mice, read-out: [drug],plasma (free base equivalent)): 142 ng/mL
- concentration at 4 h ([2]; male, Swiss-Webster, mouse, plasma, ip, 4 h, 10 mg/kg i.p., read-out: mean (plasma)): 154 ng/mL
- concentration at 24 h ([2]; male, Swiss-Webster, mouse, plasma, ip, 24 h, 10 mg/kg i.p., individual mice, read-out: [drug],plasma (free base equivalent)): 13 ng/mL
- concentration at 24 h ([2]; male, Swiss-Webster, mouse, plasma, ip, 24 h, 10 mg/kg i.p., <MRC substituted by MRC/2, read-out: mean (plasma)): 9 ng/mL
- AUC(0-inf) ([2]; male, Swiss-Webster, mouse, plasma, ip, plasma NCA, 10 mg/kg i.p., read-out: AUC 0-inf_obs): 9490 ng·h/mL
- CL/F ([2]; male, Swiss-Webster, mouse, plasma, ip, plasma NCA, 10 mg/kg i.p., read-out: Cl/F_obs (converted)): 17.6 mL/min/kg
- Vd/F ([2]; male, Swiss-Webster, mouse, plasma, ip, plasma NCA, 10 mg/kg i.p., read-out: Vz/F_obs): 4.38 L/kg
- AUC(0-inf) ([2]; male, Swiss-Webster, mouse, plasma, ip, plasma, 10 mg kg^-1 i.p., non-compartmental analysis, read-out: AUC 0–∞,p): 9490 ng·h/mL
- CL/F ([2]; male, Swiss-Webster, mouse, plasma, ip, plasma, 10 mg kg^-1 i.p., non-compartmental analysis, read-out: CL/F (converted)): 16.7 mL/min/kg
- Vd/F ([2]; male, Swiss-Webster, mouse, plasma, ip, plasma, 10 mg kg^-1 i.p., non-compartmental analysis, read-out: V z /F): 4.4 L/kg
- AUMC 0-inf_obs ([2]; plasma NCA, 10 mg/kg i.p.): 20681.1 ng/ml*h^2
- Tlag ([2]; plasma NCA, 10 mg/kg i.p.): 0 h
- C max,brain,u ([2]; unbound brain, 10 mg kg^-1 i.p., in vivo brain binding assumed at least 3-fold greater than homogenate): < 6 nM
- Sedation, duration [3]: less than 3 hours
- Sedation, time to maximum [3]: ≤ 20 min
- logD ([4]; 1-octanol/PBS, pH 7.4, pooled mixing times 1, 10, 30 min): -0.08
- logD at 1 min ([4]; 1-octanol/PBS, mixing time 1 min, octanol/PBS pH 7.4): -0.07
- logD at 10 min ([4]; 1-octanol/PBS, mixing time 10 min, octanol/PBS pH 7.4): -0.11
- logD at 30 min ([4]; 1-octanol/PBS, mixing time 30 min, octanol/PBS pH 7.4): -0.0527
- Log10D7.4 octanol:buffer (pH 7.4) ([4]; mean, n = 3): -0.1

Reference: paper PMC3411462, “Long-acting κ opioid antagonists nor-BNI, GNTI and JDTic: pharmacokinetics in mice and lipophilicity” (BMC Pharmacology, 2012)
